Results: ChEMBL document CHEMBL1201862, “PubChem BioAssay data set” (2004)
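Interpolation was linear, between the two tested concentrations surrounding the appropriate level; five concentrations were tested over 48 hours in 96-well plates. Here, GI50 denotes the concentration required for 50% inhibition of growth.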 The source made the active and inactive calls. Cut-off read from the data, not from the text of the source: active = GI50 up to about 1.1 µM and inactive = higher.

Columns and labels:
Assay in all cases: DTP human tumour cell line panel, 48 h
PC-3 = tested on: PC-3
NCI-H460 = tested on: NCI-H460
MDA-MB-231 = tested on: MDA-MB-231
M14 = tested on: M14
HT-29 = tested on: HT-29
HCT-116 = tested on: HCT-116
A549 = tested on: A549
SF-295 = tested on: SF-295
CCRF-CEM = tested on: CCRF-CEM
ACHN = tested on: ACHN
T47D = tested on: T47D
HL-60 = tested on: HL-60
OVCAR-4 = tested on: OVCAR-4
OVCAR-3 = tested on: OVCAR-3
TK-10 = tested on: TK-10
SK-OV-3 = tested on: SK-OV-3
SN12C = tested on: SN12C
COLO 205 = tested on: COLO 205
RXF 393 = tested on: RXF 393
MCF7 = tested on: MCF7
IGROV-1 = tested on: IGROV-1
A498 = tested on: A498
K562 = tested on: K562
SK-MEL-5 = tested on: SK-MEL-5
SNB-19 = tested on: SNB-19
NCI/ADR-RES = tested on: NCI/ADR-RES
HCT-15 = tested on: HCT-15
HOP-62 = tested on: HOP-62
UACC-257 = tested on: UACC-257
EKVX = tested on: EKVX
NCI-H226 = tested on: NCI-H226
KM12 = tested on: KM12
U-251 = tested on: U-251
SK-MEL-28 = tested on: SK-MEL-28
SW-620 = tested on: SW-620
CAKI-1 = tested on: CAKI-1
MDA-MB-435 = tested on: MDA-MB-435
MOLT-4 = tested on: MOLT-4
BT-549 = tested on: BT-549
SF-539 = tested on: SF-539
DU-145 = tested on: DU-145
RPMI-8226 = tested on: RPMI-8226
LOX IMVI = tested on: LOX IMVI
MDA-N = tested on: MDA-N
786-0 = tested on: 786-0
NCI-H23 = tested on: NCI-H23
OVCAR-5 = tested on: OVCAR-5
SNB-75 = tested on: SNB-75
UACC-62 = tested on: UACC-62
OVCAR-8 = tested on: OVCAR-8
HCC 2998 = tested on: HCC 2998
SF-268 = tested on: SF-268
NCI-H522 = tested on: NCI-H522
Malme-3M = tested on: Malme-3M
UO-31 = tested on: UO-31
SK-MEL-2 = tested on: SK-MEL-2
HOP-92 = tested on: HOP-92

For `CCOP(=O)(/C=C\n1cnc2c(=O)n(C(C)=O)c(N)nc21)OCC`, the GI50 (PC-3) was 22.5 µM (inactive), the GI50 (NCI-H460) was > 100 µM (inactive) and the GI50 (MDA-MB-231) was 69.7 µM (inactive). For the same compound, the GI50 (M14) was > 100 µM (inactive), the GI50 (HT-29) was > 100 µM (inactive) and the GI50 (HCT-116) was > 100 µM (inactive). The GI50 (A549) was > 100 µM (inactive), the GI50 (SF-295) was > 100 µM (inactive) and the GI50 (CCRF-CEM) was > 100 µM (inactive). The GI50 (ACHN) was > 100 µM (inactive), the GI50 (T47D) was > 100 µM (inactive) and the GI50 (HL-60) was > 100 µM (inactive). The GI50 (OVCAR-4) was > 100 µM (inactive), the GI50 (OVCAR-3) was > 100 µM (inactive) and the GI50 (TK-10) was > 100 µM (inactive). For the same compound, the GI50 (SK-OV-3) was > 100 µM (inactive), the GI50 (SN12C) was > 100 µM (inactive) and the GI50 (COLO 205) was > 100 µM (inactive). For the same compound, the GI50 (RXF 393) was > 100 µM (inactive), the GI50 (MCF7) was > 100 µM (inactive) and the GI50 (IGROV-1) was > 100 µM (inactive). The GI50 (A498) was > 100 µM (inactive), the GI50 (K562) was > 100 µM (inactive) and the GI50 (SK-MEL-5) was > 100 µM (inactive). For the same compound, the GI50 (SNB-19) was > 100 µM (inactive), the GI50 (NCI/ADR-RES) was > 100 µM (inactive) and the GI50 (HCT-15) was > 100 µM. The GI50 (HOP-62) was > 100 µM (inactive), the GI50 (UACC-257) was > 100 µM (inactive) and the GI50 (EKVX) was > 100 µM (inactive). For the same compound, the GI50 (NCI-H226) was > 100 µM (inactive), the GI50 (KM12) was > 100 µM (inactive) and the GI50 (U-251) was > 100 µM (inactive). For the same compound, the GI50 (SK-MEL-28) was > 100 µM (inactive), the GI50 (SW-620) was > 100 µM (inactive) and the GI50 (CAKI-1) was > 100 µM (inactive). The GI50 (MDA-MB-435) was > 100 µM (inactive), the GI50 (MOLT-4) was > 100 µM (inactive) and the GI50 (BT-549) was > 100 µM (inactive). The GI50 (SF-539) was > 100 µM (inactive), the GI50 (DU-145) was > 100 µM (inactive) and the GI50 (RPMI-8226) was > 100 µM (inactive). For the same compound, the GI50 (LOX IMVI) was > 100 µM (inactive), the GI50 (MDA-N) was > 100 µM (inactive) and the GI50 (786-0) was > 100 µM (inactive). For the same compound, the GI50 (NCI-H23) was > 100 µM (inactive), the GI50 (OVCAR-5) was > 100 µM (inactive) and the GI50 (SNB-75) was > 100 µM (inactive). For the same compound, the GI50 (UACC-62) was > 100 µM (inactive) and the GI50 (OVCAR-8) was > 100 µM (inactive).
`CN(C)/N=N/c1nc2c(c(=O)n(C)c(=O)n2C)n1CC1CO1` (stereo not drawn) was tested, and the GI50 (PC-3) was 20.7 µM (inactive), the GI50 (NCI-H460) was 10.1 µM (inactive) and the GI50 (MDA-MB-231) was 16.9 µM (inactive). The GI50 (M14) was 15.8 µM (inactive), the GI50 (HT-29) was 13.6 µM (inactive) and the GI50 (HCT-116) was 11.7 µM (inactive). For the same compound, the GI50 (A549) was 20 µM (inactive), the GI50 (SF-295) was 17 µM (inactive) and the GI50 (CCRF-CEM) was 23.8 µM (inactive). The GI50 (ACHN) was 10.8 µM (inactive), the GI50 (T47D) was 18.4 µM (inactive) and the GI50 (HCC 2998) was 12.7 µM (inactive). For the same compound, the GI50 (HL-60) was 4 µM (inactive), the GI50 (OVCAR-4) was 15.7 µM (inactive) and the GI50 (OVCAR-3) was 15.8 µM (inactive). For the same compound, the GI50 (TK-10) was 11.9 µM (inactive), the GI50 (SK-OV-3) was 17.2 µM (inactive) and the GI50 (SN12C) was 15.7 µM (inactive). The GI50 (COLO 205) was 14.3 µM (inactive), the GI50 (SF-268) was 11.6 µM (inactive) and the GI50 (RXF 393) was 2.88 µM (inactive). The GI50 (MCF7) was 5.38 µM (inactive), the GI50 (IGROV-1) was 11.7 µM (inactive) and the GI50 (K562) was 19.2 µM (inactive). For the same compound, the GI50 (SK-MEL-5) was 12.9 µM (inactive), the GI50 (SNB-19) was 19.9 µM (inactive) and the GI50 (NCI-H522) was 14.1 µM (inactive). For the same compound, the GI50 (NCI/ADR-RES) was 16.6 µM (inactive), the GI50 (HCT-15) was 14.2 µM and the GI50 (HOP-62) was 12.1 µM (inactive). The GI50 (UACC-257) was 16.6 µM (inactive), the GI50 (EKVX) was 22.4 µM (inactive) and the GI50 (NCI-H226) was 8.51 µM (inactive). For the same compound, the GI50 (KM12) was 13.4 µM (inactive), the GI50 (U-251) was 12.5 µM (inactive) and the GI50 (SK-MEL-28) was 20.7 µM (inactive). The GI50 (SW-620) was 15 µM (inactive), the GI50 (Malme-3M) was 9.18 µM (inactive) and the GI50 (UO-31) was 14.5 µM (inactive). For the same compound, the GI50 (CAKI-1) was 13.9 µM (inactive), the GI50 (MDA-MB-435) was 16.7 µM (inactive) and the GI50 (MOLT-4) was 12.3 µM (inactive). For the same compound, the GI50 (BT-549) was 17.1 µM (inactive), the GI50 (SF-539) was 7.1 µM (inactive) and the GI50 (DU-145) was 14.4 µM (inactive). For the same compound, the GI50 (RPMI-8226) was 23.8 µM (inactive), the GI50 (LOX IMVI) was 8.43 µM (inactive) and the GI50 (MDA-N) was 19.9 µM (inactive). The GI50 (786-0) was 16.6 µM (inactive), the GI50 (NCI-H23) was 12.2 µM (inactive) and the GI50 (OVCAR-5) was 32 µM (inactive). The GI50 (SNB-75) was 11.7 µM (inactive), the GI50 (UACC-62) was 12.4 µM (inactive) and the GI50 (SK-MEL-2) was 10.7 µM (inactive). The GI50 (OVCAR-8) was 14.5 µM (inactive).
In the case of `C=CCOC(=O)CCCCCCCCCCCCCCCOC(=O)c1c(CCC[C@@H](C)O[Si](C)(C)C(C)(C)C)nc([O-])[n+]2c1CC[C@H]2CC1(CC/C=C\[C@H](CC)O[Si](C(C)C)(C(C)C)C(C)C)OCCO1`, the GI50 (PC-3) is reported as > 100 µM (inactive), the GI50 (NCI-H460) is reported as > 100 µM (inactive) and the GI50 (MDA-MB-231) is reported as 18.6 µM (inactive). The GI50 (M14) was > 100 µM (inactive), the GI50 (HCT-116) was 47.1 µM (inactive) and the GI50 (A549) was 55 µM (inactive). The GI50 (SF-295) was 48.8 µM (inactive), the GI50 (CCRF-CEM) was 14.4 µM (inactive) and the GI50 (ACHN) was 35.7 µM (inactive). For the same compound, the GI50 (T47D) was > 100 µM (inactive), the GI50 (HCC 2998) was 73.8 µM (inactive) and the GI50 (OVCAR-4) was > 100 µM (inactive). For the same compound, the GI50 (OVCAR-3) was 50.8 µM (inactive), the GI50 (TK-10) was > 100 µM (inactive) and the GI50 (SK-OV-3) was > 100 µM (inactive). For the same compound, the GI50 (SN12C) was 34 µM (inactive), the GI50 (COLO 205) was > 100 µM (inactive) and the GI50 (SF-268) was > 100 µM (inactive). For the same compound, the GI50 (MCF7) was 53.5 µM (inactive), the GI50 (A498) was > 100 µM (inactive) and the GI50 (SK-MEL-5) was 21.9 µM (inactive). The GI50 (SNB-19) was 80.2 µM (inactive), the GI50 (NCI-H522) was > 100 µM (inactive) and the GI50 (NCI/ADR-RES) was > 100 µM (inactive). For the same compound, the GI50 (HCT-15) was 46 µM, the GI50 (HOP-62) was 48.6 µM (inactive) and the GI50 (UACC-257) was > 100 µM (inactive). For the same compound, the GI50 (EKVX) was > 100 µM (inactive), the GI50 (NCI-H226) was > 100 µM (inactive) and the GI50 (KM12) was 85.9 µM (inactive). For the same compound, the GI50 (U-251) was 17.2 µM (inactive), the GI50 (SK-MEL-28) was > 100 µM (inactive) and the GI50 (Malme-3M) was > 100 µM (inactive). The GI50 (UO-31) was 28.4 µM (inactive), the GI50 (HOP-92) was 18.2 µM (inactive) and the GI50 (CAKI-1) was > 100 µM (inactive). The GI50 (MDA-MB-435) was > 100 µM (inactive), the GI50 (BT-549) was > 100 µM (inactive) and the GI50 (SF-539) was > 100 µM (inactive). The GI50 (DU-145) was > 100 µM (inactive), the GI50 (RPMI-8226) was 48.8 µM (inactive) and the GI50 (MDA-N) was 60.8 µM (inactive). The GI50 (786-0) was 26.7 µM (inactive), the GI50 (NCI-H23) was > 100 µM (inactive) and the GI50 (OVCAR-5) was 30.1 µM (inactive). For the same compound, the GI50 (SNB-75) was > 100 µM (inactive), the GI50 (UACC-62) was 30.4 µM (inactive) and the GI50 (SK-MEL-2) was 37.2 µM (inactive).
